The results in this text go back to PubChem BioAssay AID624285 (Broad Institute, 2012).

Molecules are shown by their SMILES. Activity calls are given as the source filed them.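 How the source made its calls: active means signal-decreasing dose-response curve whose fitted half-maximal concentration is at or below twice the highest valid tested dose; inconclusive means flat fit at 30 to 70% signal loss, or poor fit; inactive means the rest.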

The first assay is described as follows: cell viability loss after compound exposure – 24 h, luminescence, cherry-picked samples, cytotoxicity control for PDI inhibitor project, dose response (AID 624285). To be noted: NIH3T3/HeLa viability, CellTiter-Glo ATP luminescence, 24 h; at 30 µM (top of the series). (In general: ATP-based viability assays read luminescence as a measure of living cells.)
Consider `COc1ccc(CN(C)C[C@@H]2Oc3ccc(NC(=O)Nc4ccccc4)cc3CC(=O)N([C@H](C)CO)C[C@@H]2C)cc1`, for which the activity change, negative = cytotoxicity was -5.13% (inactive).

Still in this assay, the particulars now being: NIH3T3/HeLa viability, CellTiter-Glo ATP luminescence, 24 h; at 35 µM (top of the series).
Consider `COc1cc(C(=O)N2CCN(C/C=C/c3ccccc3)CC2)cc(OC)c1OC`, for which the activity change, negative = cytotoxicity was -12% (inactive).
Same read-out and setting: then `O=C(CN1C(=O)NC2(CCCC2)C1=O)Nc1ccc(C(F)(F)F)cc1`, with -9.2% (inactive); and `Cc1c(O)ccc2c(CN3CCN(Cc4ccccc4)CC3)cc(=O)oc12`, with -14.2% (inactive); and `CCC1Nc2ncnc(N3CCCCC3)c2N(Cc2ccc(C)cc2)C1=O` (configuration not stated), with -16.7% (inactive).
With `COc1ccc(N(Cc2cc3cc(OC)ccc3[nH]c2=O)C(=O)C2CCCO2)cc1` (configuration not stated), the activity change, negative = cytotoxicity is -10.5% (inactive).
The same measure, in the same setting: then `Cc1noc(C)c1S(=O)(=O)Nc1ccc2c(c1)CC(=O)N([C@@H](C)CO)C[C@H](C)[C@H](CN(C)S(=O)(=O)c1ccc(F)cc1)O2`, with 7.36% (inactive); and `O=C1CCC(=O)N1CCc1c[nH]c2ccccc12`, with -6.09% (inactive); and `OCCC1CN(Cc2cccn2-c2ccccn2)CCN1C1CCCCC1` (configuration not stated), with -20.5% (inactive).
As for `Cn1nccc1C(=O)Nc1ccc(S(=O)(=O)N2CCCC2)cc1`, the activity change, negative = cytotoxicity was -14.9% (inactive).
On the same count and under the same terms, then `CN(C)C(=O)CSc1nnc([C@H](Cc2ccccc2)NC(=O)OC(C)(C)C)o1`, with -9.45% (inactive).
Same read-out and setting: with `C[C@@H]1O[C@@H](O[C@H]2[C@H](O)[C@@H](O)[C@H](Oc3c(-c4ccc(O)cc4)oc4cc(O)cc(O)c4c3=O)O[C@@H]2CO)[C@H](O)[C@H](O)[C@H]1O` the figure was -3.49% (inactive); with `Cc1cc(C)cc(OCC(=O)Nc2ccccc2C(=O)N2CCOCC2)c1`, -11.8% (inactive).
On the same count and under the same terms, with `CCOC(=O)c1cc(S(=O)(=O)N2CCN(C(=O)OCC)CC2)cn1C` the figure was -3.84% (inactive); with `Cc1ccc2nsnc2c1NC(=O)c1cccnc1Cl`, -3.17% (inactive); with `O=C(N/N=C/c1cccc([N+](=O)[O-])c1)c1cnccn1`, -7.37% (inactive).
Take `CCOc1ccc2[nH]c(=O)c(CN(CCO)C(=O)CC)cc2c1`: the activity change, negative = cytotoxicity is -9.33% (inactive).
Still for that read-out and setting: then `CCOC(=O)c1oc2cccc(O)c2c1CN(Cc1ccccc1)C(C)=O`, with -17.2% (inactive); and `COc1cccc(/C=N/NC(=O)CNC(=O)c2ccc3c(c2)OCCO3)c1O`, with -12.5% (inactive); and `CCN(CC)CCNC(=O)C(C(=O)c1ccccc1)n1ccccc1=O` (configuration not stated), with -1.54% (inactive).
Same read-out and setting: then `CN(C)c1ccc(NC(=O)CN2C(=O)CC(c3ccccc3)=Nc3ccccc32)cc1`, with -19.2% (inactive).
`CCCCC1CCC(c2nc(-c3ccccn3)no2)CC1` (configuration not stated): the activity change, negative = cytotoxicity was -12.5% (inactive).
In the case of `CCCc1cc(=O)[nH]c(SCCOc2ccc(OCC)cc2)n1`, the activity change, negative = cytotoxicity is -5.03% (inactive).
On the same count and under the same terms, then `CCCCNC(=O)CCn1c(=O)c2ccccc2n(CC(=O)Nc2ccccc2OCC)c1=O`, with -9.28% (inactive); and `COc1ccc(OC)c(CN2CCN(Cc3cc(=O)oc4cc(O)ccc34)CC2)c1`, with -20.6% (inactive).
With `C[C@@H](CN1C2=NC[C@H](Cc3ccc(O)cc3)N2C[C@H]1Cc1ccc(O)cc1)NC(=O)CCC1CCCCC1`, the activity change, negative = cytotoxicity was -8.59% (inactive).
Regarding `Cc1c(-n2cc(C(=O)c3cc(Br)ccc3O)cc(C#N)c2=O)c(=O)n(-c2ccccc2)n1C`, the activity change, negative = cytotoxicity was -12.8% (inactive).
Still for that read-out and setting: with `Cc1noc(C)c1S(=O)(=O)Nc1ccc2c(c1)CC(=O)N([C@@H](C)CO)C[C@@H](C)[C@H](CN(C)S(=O)(=O)c1ccc(F)cc1)O2` the figure was -10.5% (inactive).
With `FC(F)(F)c1cccc(NC(=S)NCc2ccccn2)c1`, the activity change, negative = cytotoxicity is -2.29% (inactive).
The same measure, in the same setting: then `C[C@@H]1O[C@@H](O[C@H]2[C@H](O)[C@@H](O)[C@H](Oc3c(-c4ccc(O)c(O)c4)oc4cc(O)cc(O)c4c3=O)O[C@@H]2CO)[C@H](O)[C@H](O)[C@H]1O`, with 1.36% (inactive).
With `CN(C)CCN(C(=O)c1ccc(S(=O)(=O)N2CCc3ccccc32)cc1)c1nc2ccc(F)cc2s1`, the activity change, negative = cytotoxicity was -13.9% (inactive).
`O=C(CN(CCc1ccccc1)C(=O)CNS(=O)(=O)c1ccccc1)NCC1CCCO1` (configuration not stated): the activity change, negative = cytotoxicity is -1.76% (inactive).
Same read-out and setting: then `C[C@H]1CN([C@@H](C)CO)C(=O)c2cccc(NS(C)(=O)=O)c2O[C@@H]1CN(C)Cc1ccc(Oc2ccccc2)cc1`, with -9.08% (inactive).
Same read-out and setting: with `CN(C)S(=O)(=O)c1ccc(C(=O)Nc2ccc3nc(N4CCOCC4)sc3c2)cc1` the figure was -20.7% (inactive); with `O=C1CN(c2nc3ccccc3n3cnnc23)CC(=O)N1CCc1ccccc1`, -8.64% (inactive).
Turning to `CCOC(=O)C1(C)CCCN(C(=O)c2cccc(Cl)c2)C1` (configuration not stated), the activity change, negative = cytotoxicity is -5.27% (inactive).
For `COc1ccccc1NS(=O)(=O)c1cccc(C(=O)NCC2(N3CCCCC3)CCCCC2)c1`, the activity change, negative = cytotoxicity is -10.5% (inactive).
Still for that read-out and setting: with `CC(=O)OC[C@H]1O[C@@H](Oc2cc(O)cc3oc(-c4ccc(O)cc4)cc(=O)c23)[C@H](O[C@@H]2O[C@@H](C)[C@H](O)[C@@H](O)[C@H]2O)[C@@H](O)[C@@H]1O` the figure was -6.13% (inactive).
On the same count and under the same terms, with `O=C(O)CCCCCn1c(SCC(=O)c2ccc(O)c(O)c2)nc2ccsc2c1=O` the figure was -10.6% (inactive).
The same measure, in the same setting: with `Cc1ccc(CN(c2ccc(C(=O)Nc3ccc4c(c3)OCO4)cc2)S(C)(=O)=O)cc1` the figure was -9.66% (inactive).
With `Cc1cc(NC(=O)COC(=O)C2CC(=O)N(c3ccccc3)C2)no1` (configuration not stated), the activity change, negative = cytotoxicity is -2.55% (inactive).
On the same count and under the same terms, then `C[C@H](CO)N1C[C@H](C)[C@@H](CN(C)S(=O)(=O)c2ccc(F)cc2)Oc2ccc(NC(=O)Cc3cn(C)c4ccccc34)cc2C1=O`, with -0.991% (inactive); and `C[C@@H]1CN([C@H](C)CO)C(=O)Cc2cc(NC(=O)Nc3ccccc3)ccc2O[C@H]1CN(C)Cc1ccccc1`, with 1.49% (inactive).
Same read-out and setting: with `COc1ccc(C(=O)Nc2ccccc2C(=O)NCc2ccco2)cc1` the figure was -14.7% (inactive); with `O=C1C[C@H](c2ccc(O)cc2)Oc2cc(O[C@@H]3O[C@H](CO)[C@@H](O)[C@H](O)[C@H]3O)cc(O[C@@H]3O[C@H](CO)[C@@H](O)[C@H](O)[C@H]3O)c21`, -8.86% (inactive); with `CC1(C)CC[C@]2(C(=O)O)CC[C@]3(C)C(=CC[C@@H]4[C@@]5(C)CC[C@H](O[C@@H]6O[C@H](C(=O)O)[C@@H](O)[C@H](O[C@@H]7OC[C@H](O)[C@H](O)[C@H]7O)[C@H]6O)C(C)(C)[C@@H]5CC[C@]43C)[C@@H]2C1`, -3.34% (inactive).
The same measure, in the same setting: then `Cc1c(O)ccc2c(CC(=O)N[C@@H](Cc3c[nH]c4ccccc34)C(=O)O)cc(=O)oc12`, with -8.56% (inactive).
